Tests used:
[1] = Stability: moisture content with respect to time in thermo-hygrostat (Karl Fisher); type: physicochemical; settings: 25° C. and 60% RH, opened Petri dish
Procedure: To compare the stability of 10-ethoxy-8-(morpholinomethyl)-1,2,3,4-tetrahydrobenzo[h][1,6]naphthyridine-5(6H)-on dichloride dihydrate prepared in Example 1 and 10-ethoxy-8-(morpholinomethyl)-1,2,3,4-tetrahydrobenzo[h][1,6]naphthyridine-5(6H)-on dichloride anhydride prepared in Comparative Example 1, the following experiment was performed.
3.0 g of each of the compounds was put in a Petri dish, and the Petri dish was left in a thermo-hygrostat maintaining 25° C. and 60% RH with an opened state. The moisture content with respect to time was measured using a Karl Fisher apparatus and recorded. By measuring the change of the moisture content with respect to time under the above-described conditions, the stability of the dihydrate and that of the anhydride were compared. The results are illustrated in the following Table 1 and FIG. 1.

[2] = Stability of crystalline vs amorphous compound by change of XRD diffraction pattern (with moisture content); type: physicochemical; settings: for Change of XRD diffraction pattern with respect to time (in words): X-ray diffraction analysis
Procedure: For comparing the stability of the crystalline compound of Example 1 according to the present invention and the amorphous compound of Comparative Example 2, the following experiment was performed.
The stability of each of the crystalline compound of Example 1 according to the present invention and the amorphous compound of Comparative Example 2 was measured by measuring the change of a diffraction pattern through X-ray diffraction analysis (XRD).
For the amorphous compound of Comparative Example 2, accurate and specific XRD pattern of the amorphous type was not shown, however amorphous 10-ethoxy-8-(morpholinomethyl)-1,2,3,4-tetrahydrobenzo[h][1,6]naphthyridine-5(6H)-on dichloride obtained after freeze drying absorbs surrounding moisture during performing the XRD, thereby increasing the crystallinity and showing XRD peaks.
Meanwhile, the moisture content of the compound of Comparative Example 2 was 0.4% immediately after drying, and was increased to 5.2% after measuring XRD.

SMILES	Change of the moisture content with respect to time (in words) [1]	Moisture content ([1]; 30 min)	Moisture content ([1]; 1 h)	Moisture content ([1]; 2 h)	Moisture content ([1]; 1 day)	Moisture content ([1]; 2 days)	Moisture content ([1]; initial state)	Change of XRD diffraction pattern with respect to time (in words) [2]	Moisture content ([2]; after measuring XRD)	Moisture content ([2]; immediately after drying)	Change of the moisture content with respect to time (in words) ([1]; dihydrate)	Moisture content ([1]; 30 min, dihydrate)	Moisture content ([1]; 1 h, dihydrate)	Moisture content ([1]; 2 h, dihydrate)	Moisture content ([1]; 1 day, dihydrate)	Moisture content ([1]; 2 days, dihydrate)	Moisture content ([1]; initial state, dihydrate)
CCOc1cc(CN2CCOCC2)cc2[nH]c(=O)c3c(c12)NCCC3 [Comparative Example 1, 10-ethoxy-8-(morpholinomethyl)-1,2,3,4-tetrahydrobenzo[h][1,6]naphthyridine-5(6H)-on dichloride anhydride]	increased within 30 minutes from the initial state	9.70%	10.18%	9.79%	9.72%	9.86%	0.40%	–	–	–	–	–	–	–	–	–	–
CCOc1cc(CN2CCOCC2)cc2[nH]c(=O)c3c(c12)NCCC3.Cl.Cl [Comparative Example 2, 10-ethoxy-8-(morpholinomethyl)-1,2,3,4-tetrahydrobenzo[h][1,6]naphthyridine-5(6H)-on dichloride]	–	–	–	–	–	–	–	crystallinity thereof is increased	5.2%	0.4%	–	–	–	–	–	–	–
CCOc1cc(CN2CCOCC2)cc2[nH]c(=O)c3c(c12)NCCC3 [Example 1, 10-ethoxy-8-(morpholinomethyl)-1,2,3,4-tetrahydrobenzo[h][1,6]naphthyridine-5(6H)-on dichloride dihydrate]	–	–	–	–	–	–	–	constant data without change of the XRD diffraction pattern	–	–	constant	8.75%	8.80%	8.79%	8.77%	8.81%	8.77%

Source: patent US9522911B2, “Crystalline forms of tricyclic compound acid salt or hydrate thereof, and method for making thereof” (Jeil Pharmaceutical Co., Ltd., priority 2012, dated 2016)
